Legend:
[1] = system: SOCE (store operated calcium entry) in CHO cells; assay: Assay of SOCE (store operated calcium entry)-inhibiting action; format: cell-based, Chinese hamster; conditions: CHO cells, thapsigargin; for inhibition at 10 µM / inhibition at 30 µM / inhibition at 100 µM: Cricetulus griseus, CHO, read-out: SOCE level (percentage of inhibition)
Summary of the method: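 CHO cells in calcium-free BSS received compound, then 1 μM thapsigargin 2 min later to deplete stores; after 9 min, 2 mM calcium chloride (final) added. Percent inhibition of the rise in intracellular calcium determined at various compound concentrations.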

[2] = system: IICR (IP3 induced calcium release) in CHO cells; assay: Assay of IICR (IP3 induced calcium release)-inhibiting action; format: cell-based, Chinese hamster; conditions: CHO cells, 10 μM ATP; for inhibition at 10 µM / inhibition at 30 µM / inhibition at 100 µM: Cricetulus griseus, CHO, read-out: IICR level (percentage of inhibition)
Summary of the method: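 CHO cell medium replaced with calcium-containing BSS; compound added 1 min later, then 10 μM ATP after a further 2 min. Percent inhibition of the ATP-evoked rise in intracellular calcium determined at each compound concentration.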

Row | SMILES | inhibition at 10 µM ([1]; test compound 10 μmol) [%] | inhibition at 30 µM ([1]; test compound 30 μmol) [%] | inhibition at 100 µM ([1]; test compound 100 μmol) [%] | inhibition at 10 µM ([2]; test compound 10 μmol) [%] | inhibition at 30 µM ([2]; test compound 30 μmol) [%] | inhibition at 100 µM ([2]; test compound 100 μmol) [%] | SOCE level (percentage of inhibition) ([1]; test compound 10 μmol) [%] | SOCE level (percentage of inhibition) ([1]; test compound 30 μmol) [%] | SOCE level (percentage of inhibition) ([1]; test compound 100 μmol) [%] | IICR level (percentage of inhibition) ([2]; test compound 10 μmol) [%] | IICR level (percentage of inhibition) ([2]; test compound 30 μmol) [%] | IICR level (percentage of inhibition) ([2]; test compound 100 μmol) [%]
1 | CC(C)N(CCO)CCC(=O)c1ccc2ccccc2c1 [Example 205, 2-(N-hydroxyethylisopropyl)aminoethyl-2-naphthylketone] | 0 | 0 | 0 | 0 | 0 | 0 |  |  |  |  |  | 
2 | CC(C)N(CCO)CC(=O)c1ccccc1 [Example 206, 2-(N-hydroxyethylisopropyl)aminomethylphenylketone] | 0 | 0 | 0 | 0 | 0 | 40 |  |  |  |  |  | 
3 | CC(C)N(CCO)CCCC(=O)c1ccccc1 [Example 207, 3-(N-hydroxyethylisopropyl)aminopropylphenylketone] |  |  |  |  |  |  | 0 | 0 | 30 | 20 | 20 | 20
4 | CN(CCO)CCC(=O)c1cnccn1 [Example 208, 2-(N-hydroxyethylmethyl)aminoethyl-2-pyrazylketone] | 0 | 10 | 20 | 20 | 30 | 30 |  |  |  |  |  | 
5 | CCN(CCC(=O)c1ccncc1)Cc1ccccc1 [Example 209, 2-(N-ethylbenzyl)aminoethyl-4-pyridylketone] | 0 | 20 | 60 | 20 | 20 | 50 |  |  |  |  |  | 
6 | CC(C)(C)N(CCC(=O)c1ccncc1)Cc1ccccc1 [Example 210, 2-(N-t-butylbenzyl)aminoethyl-4-pyridylketone] | 0 | 10 | 30 | 0 | 20 | 0 |  |  |  |  |  | 
7 | O=C(CCN1CCN(c2ccco2)CC1)c1ccc(F)cc1 [Example 211, 2-(N-2-furylpiperadino)ethyl-4-fluorophenylketone] | 0 | 10 | 30 | 30 | 20 | 20 |  |  |  |  |  | 
8 | CC(C)N(CCC(=O)c1ccc(F)cc1)Cc1ccccc1 [Example 212, 2-(N-isopropylbenzyl)aminoethyl-4-fluorophenylketone] | 0 | 30 | 50 | 20 | 80 | 30 |  |  |  |  |  | 
9 | CC(C)(C)N(CCC(=O)c1cnccn1)Cc1ccccc1 [Example 213, 2-(N-2-benzyl-t-butyl)aminoethyl-2-pyrazylketone] | 0 | 0 | 10 | 20 | 80 | 90 |  |  |  |  |  | 
10 | CC(C)(C)N(CCO)CCC(=O)c1cnccn1 [Example 214, 2-(N-2-hydroxyethyl-t-butyl)aminoethyl-2-pyrazylketone] | 10 | 0 | 0 | 0 | 0 | 0 |  |  |  |  |  | 
11 | CN(CCC(=O)c1cnccn1)Cc1ccccc1 [Example 215, 2-(N-benzylmethyl)aminoethyl-2-pyrazylketone] | 0 | 0 | 0 | 0 | 0 | 50 |  |  |  |  |  | 
12 | O=C(CCNCCCCNCCCNCCC(=O)c1ccncc1)c1ccncc1 [Example 216, N,N-bis(4-pyrizoylethyl)spermidine] | 0 | 10 | 10 | 0 | 0 | 30 |  |  |  |  |  | 
13 | O=C(CCN1CCCCC1CO)c1ccncc1 (stereo not drawn) [Example 217] | 10 | 0 | 20 | 0 | 20 | 50 |  |  |  |  |  | 
14 | CCN(CCC(=O)c1ccc2c(c1)Cc1ccccc1-2)Cc1ccccc1 [Example 218, 2-(N-benzylethyl)aminoethyl-2-florenylketone] | 20 | 60 | 70 | 10 | 40 | 70 |  |  |  |  |  | 

Source: patent US8937091B2 (Japan Science and Technology Agency, priority 2009, dated 2015)
